Here are results for 10 compounds from patent US10981932B2, “Macrocyclic indole derivatives” (Bayer Aktiengesellschaft, priority 2016, dated 2021).

The test system of data set [1] is SUDHL10. Put plainly: Induction of cytotoxicity (CellTiter-Glo, 5 h), SUDHL10. (In general: Cellular ATP, detected with luciferase, serves as a proxy for viable cell number.)
In data set [2] the test system is SUDHL5. Nature of the data set: Induction of caspase-3/7 activity (Caspase-Glo 3/7), SUDHL5. As to conditions: caspase-3/7 induction, SUDHL5 cells, 3 h treatment, median. The data set is classed as cell-based. The procedure, abridged: (§1)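 Apoptosis induction measured as caspase-3/7 activity (Caspase-Glo 3/7) in DLBCL lines after 3 h treatment at 37 °C; EC50 derived relative to the reference compound's maximal induction, with C0 fixed at 1.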

Data set [3] addresses MCL-1 (Homo sapiens, UniProt Q07820). Put plainly: Protein-protein interaction assay MCL-1/Noxa BH3 peptide (MCL-1 assay), TR-FRET. In kind it is binding. As to conditions: MBP-MCL-1 / Noxa BH3-derived peptide, median. The procedure, abridged:
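Inhibition values were normalized between DMSO controls with all reagents and controls lacking MCL-1. The binding competition used 1 nM MBP-MCL-1 in pH 7 Tris buffer containing 50 mM KF and 100 mM NaCl, with a 10 min compound preincubation at 22 °C.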
Background: In TR-FRET formats the signal depends on donor and acceptor labels being close together.

Data set [4] relates to SUDHL5. Put plainly: Anti-proliferative effect (CellTiter-Glo, 72 h), SUDHL5. The data set is classed as cell-based. As to conditions: SUDHL5 cells, antiproliferation, 72 h incubation, median, read-out: Antiproli SUDHL5 [M] (median). An outline of the steps: (§2)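 After seeding, one plate is read right away by CellTiter-Glo luminescence to fix time zero. The treated plates stay at 37 °C in humidified air for 72 h and are then measured with the same reagent and 10 min incubation.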

Data set [5] deals with SUDHL5. Put plainly: Induction of cytotoxicity (CellTiter-Glo, 5 h), SUDHL5.
For data set [6], the system named is OPM2. Put plainly: Anti-proliferative effect (CellTiter-Glo, 72 h), OPM2. In kind it is cell-based. As to conditions: OPM2 cells, median, read-out: IC50 antiproliferation assay OPM2 [M] (median). The procedure, abridged: as §2
Data set [7] relates to SUDHL10. Nature of the data set: Induction of caspase-3/7 activity (Caspase-Glo 3/7), SUDHL10. The data set is classed as cell-based. As to conditions: caspase-3/7 induction, SUDHL10 cells, 3 h treatment, median. The procedure, abridged: as §1
Data set [8] concerns SUDHL10. Nature of the data set: Anti-proliferative effect (CellTiter-Glo, 72 h), SUDHL10. In kind it is cell-based. The conditions noted are these: SUDHL10 cells, antiproliferation, 72 h incubation, median, read-out: Antiproli SUDHL10 [M] (median). An outline of the steps:
as §2

Data set [9] relates to A2780. Nature of the data set: Anti-proliferative effect (CellTiter-Glo, 72 h), A2780. The data set is classed as cell-based. The conditions noted are these: A2780 cells, median, read-out: IC50 antiproliferation assay A2780 [M] (median). An outline of the steps: as §2
Setting [10] is: Homo sapiens, SU-DHL10, 5 h, read-out: Cytotox SUDHL10 [M] (median), SUDHL10 cells, cytotoxicity induction, CellTiter-Glo, 5 h incubation, median.
Setting [11] is: Homo sapiens, SU-DHL-5, 5 h, read-out: Cytotox SUDHL5 [M] (median), SUDHL5 cells, cytotoxicity induction, CellTiter-Glo, 5 h incubation, median.

Where two headings read alike, the source gives them in different places.

Sequence of MCL-1 (Q07820 whole entry): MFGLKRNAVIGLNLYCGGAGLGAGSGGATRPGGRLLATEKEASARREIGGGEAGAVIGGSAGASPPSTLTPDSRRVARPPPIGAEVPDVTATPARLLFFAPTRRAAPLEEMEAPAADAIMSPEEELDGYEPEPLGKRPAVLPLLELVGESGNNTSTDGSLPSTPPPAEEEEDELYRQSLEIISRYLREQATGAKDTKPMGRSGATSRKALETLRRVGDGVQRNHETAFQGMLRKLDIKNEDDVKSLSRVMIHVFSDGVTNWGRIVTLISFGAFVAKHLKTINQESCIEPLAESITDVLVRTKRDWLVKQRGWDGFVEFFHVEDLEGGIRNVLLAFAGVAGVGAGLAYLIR

With `Cc1ccc2c(CCCOc3cccc4ccccc34)c(C(=O)O)n3c2c1-c1c(nn(C)c1C)COC/C=C\C3` (racemic) [Example 070, (rac)-(11Z)-2,3,4-trimethyl-7-[3-(naphthalen-1-yloxy)propyl]-2,10,13,15-tetrahydropyrazolo[4′,3′:9,10][1,6]oxazacycloundecino[8,7,6-hi]indole-8-carboxylic Acid], the IC50 in [1] (setting [10]) turned out to be 9.59e-06 M; in data set [3], 0.00652 µM; in [4] (Homo sapiens, SU-DHL-5, 72 h), 2e-06 M; in [5] (setting [11]) it was 4.28e-06 M; in [6] (Homo sapiens, OPM-2, 72 h), 1.34e-05 M; in data set [8] (Homo sapiens, SU-DHL10, 72 h), 8.58e-06 M. Also, the IC50 in data set [9] (Homo sapiens, A2780, 72 h) is 1.87e-05 M. For the same compound, the EC50 in [2] (Homo sapiens, SU-DHL-5, 3 h) came out at 5.4 µM; in data set [7] (Homo sapiens, SU-DHL10, 3 h), 8.62 µM.
`COCCn1nc2c(c1C)-c1cccc3c(CCCOc4cccc5ccccc45)c(C(=O)O)n(c13)C/C=C\COC2` (racemic) [Example 071, (rac)-(11Z)-2-(2-methoxyethyl)-3-methyl-7-[3-(naphthalen-1-yloxy)propyl]-2,10,13,15-tetrahydropyrazolo[4′,3′:9,10][1,6]oxazacycloundecino[8,7,6-hi]indole-8-carboxylic Acid]: the IC50 in data set [1] (setting [10]) was 1.76e-05 M; in data set [3] it was 0.00412 µM; in data set [4] (Homo sapiens, SU-DHL-5, 72 h), 6.23e-06 M; in [5] (setting [11]), 7.45e-06 M; in data set [6] (Homo sapiens, OPM-2, 72 h), 1.3e-05 M; in data set [8] (Homo sapiens, SU-DHL10, 72 h), 2.59e-06 M. In addition, the IC50 in data set [9] (Homo sapiens, A2780, 72 h) turned out to be 1.89e-05 M. In addition, the EC50 was determined as 5.04 µM in data set [2] (Homo sapiens, SU-DHL-5, 3 h) and 11.1 µM in data set [7] (Homo sapiens, SU-DHL10, 3 h).
With `Cc1ccc2c(CCCOc3cccc4ccccc34)c(C(=O)O)n3c2c1-c1c(nn(C)c1C)CN(C)CCC3` (racemic) [Example 072, (rac)-7,10,11,12-tetramethyl-1-[3-(naphthalen-1-yloxy)propyl]-4,5,6,7,8,10-hexahydropyrazolo[3′,4′:7,8][1,5]diazecino[9,10,1-hi]indole-2-carboxylic Acid], the IC50 was 6.12e-06 M in data set [1] (setting [10]); 0.0034 µM in data set [3]; 1.11e-06 M in data set [4] (Homo sapiens, SU-DHL-5, 72 h); 3.43e-06 M in [5] (setting [11]); 8.23e-06 M in data set [6] (Homo sapiens, OPM-2, 72 h); 5.65e-06 M in data set [8] (Homo sapiens, SU-DHL10, 72 h). Further, the IC50 in data set [9] (Homo sapiens, A2780, 72 h) stood at 9.51e-06 M. Also, the EC50 was found to be 4.54 µM in [2] (Homo sapiens, SU-DHL-5, 3 h) and 4.91 µM in data set [7] (Homo sapiens, SU-DHL10, 3 h).
`Cc1ccc2c(CCCOc3cccc4ccccc34)c(C(=O)O)n3c2c1-c1c(nn(C)c1C)COCCCC3` (racemic) [Example 075, (rac)-2,3,4-trimethyl-7-[3-(naphthalen-1-yloxy)propyl]-2,10,11,12,13,15-hexahydropyrazolo[4′,3′:9,10][1,6]oxazacycloundecino[8,7,6-hi]indole-8-carboxylic Acid]: the IC50 in [1] (setting [10]) was 8.23e-06 M; in data set [3], 0.00171 µM; in [4] (Homo sapiens, SU-DHL-5, 72 h), 3.21e-06 M; in data set [5] (setting [11]) it was 3.66e-06 M; in [6] (Homo sapiens, OPM-2, 72 h) it was 1.1e-05 M; in data set [8] (Homo sapiens, SU-DHL10, 72 h), 2.63e-06 M. Also, the IC50 in [9] (Homo sapiens, A2780, 72 h) came out at 1.97e-05 M. Besides, the EC50 in data set [2] (Homo sapiens, SU-DHL-5, 3 h) amounted to 3.25 µM; in data set [7] (Homo sapiens, SU-DHL10, 3 h), 6.36 µM.
For the compound `CCn1nc2c(c1C1CC1)-c1cccc3c(CCCOc4cccc5ccccc45)c(C(=O)O)n(c13)CCCCOC2` (racemic) [Example 081, (rac)-3-Cyclopropyl-2-ethyl-7-[3-(naphthalen-1-yloxy)propyl]-2,10,11,12,13,15-hexahydropyrazolo[4′3′:9,10][1,6]oxazacycloundecino[8,7,6-hi]indole-8-carboxylic Acid], the IC50 in data set [1] (setting [10]) turned out to be 2.26e-05 M; in data set [3], 0.015 µM; in data set [4] (Homo sapiens, SU-DHL-5, 72 h) it was 9.61e-06 M; in [5] (setting [11]), 7.06e-06 M; in [6] (Homo sapiens, OPM-2, 72 h), 1.44e-05 M; in data set [8] (Homo sapiens, SU-DHL10, 72 h), 9.62e-06 M. The IC50 in data set [9] (Homo sapiens, A2780, 72 h) turned out to be 1.74e-05 M. In addition, the EC50 in [2] (Homo sapiens, SU-DHL-5, 3 h) was 7.21 µM; in data set [7] (Homo sapiens, SU-DHL10, 3 h), 19 µM.
Consider `COCCn1nc2c(c1C1CC1)-c1cccc3c(CCCOc4cccc5ccccc45)c(C(=O)O)n(c13)CCCCOC2` (racemic) [Example 084, (rac)-3-Cycopropyl-2-(2-methoxyethyl)-7-[3-(naphthalen-1-yloxy)propyl]-2,10,11,12,13,15-hexahydropyrazolo[4′,3′:9,10][1,6]oxazacycloundecino[8,7,6-hi]indole-8-carboxylic Acid], for which the IC50 in data set [1] (setting [10]) turned out to be 2.06e-05 M; in data set [3], 0.00309 µM; in data set [4] (Homo sapiens, SU-DHL-5, 72 h), 7.19e-06 M; in [5] (setting [11]), 6.6e-06 M; in data set [6] (Homo sapiens, OPM-2, 72 h), 2.67e-05 M; in data set [8] (Homo sapiens, SU-DHL10, 72 h), 3.87e-06 M. Moreover, the IC50 in data set [9] (Homo sapiens, A2780, 72 h) was 1.77e-05 M. Also, the EC50 in [2] (Homo sapiens, SU-DHL-5, 3 h) worked out at 7.55 µM; in data set [7] (Homo sapiens, SU-DHL10, 3 h), 14.9 µM.
As to `CN1CCCn2c(C(=O)O)c(CCCOc3cccc4ccccc34)c3cccc(c32)-c2c(CCN3CCOCC3)nn(C)c2C1` (racemic) [Example 124, (rac)-7,9-dimethyl-11-[2-(morpholin-4-yl)ethyl]-1-[3-(naphthalen-1-yloxy)propyl]-4,5,6,7,8,9-hexahydropyrazolo[3′,4′:7,8][1,5]diazecino[9,10,1-hi]indole-2-carboxylic Acid], the IC50 came out at 1.61e-05 M in data set [1] (setting [10]); 0.0187 µM in data set [3]; 6.64e-06 M in data set [4] (Homo sapiens, SU-DHL-5, 72 h); 1.71e-05 M in data set [5] (setting [11]); 1.48e-05 M in [6] (Homo sapiens, OPM-2, 72 h); 3.05e-06 M in [8] (Homo sapiens, SU-DHL10, 72 h). Further, the IC50 in [9] (Homo sapiens, A2780, 72 h) turned out to be 1.1e-05 M. Moreover, the EC50 stood at 11.2 µM in data set [2] (Homo sapiens, SU-DHL-5, 3 h) and 13.4 µM in data set [7] (Homo sapiens, SU-DHL10, 3 h).
As to `Cn1nc(CN2CCOCC2)c2c1COCC=CCn1c(C(=O)O)c(CCCOc3cccc4ccccc34)c3cccc-2c31` (racemic) [Example 132, (rac)-(E/Z)-1-methyl-3-(morpholin-4-ylmethyl)-7-[3-(naphthalen-1-yloxy)propyl]-1,10,13,15-tetrahydropyrazolo[4′,3′:9,10][1,6]oxazacycloundecino[8,7,6-hi]indole-8-carboxylic Acid], the IC50 in [1] (setting [10]) amounted to 1.69e-05 M; in [3], 0.0335 µM; in [4] (Homo sapiens, SU-DHL-5, 72 h) it was 1.78e-05 M; in data set [5] (setting [11]), 2.81e-05 M; in [6] (Homo sapiens, OPM-2, 72 h), 1.17e-05 M; in data set [8] (Homo sapiens, SU-DHL10, 72 h), 6e-06 M. For the same compound, the IC50 in data set [9] (Homo sapiens, A2780, 72 h) amounted to 1.34e-05 M. Also, the EC50 was 25.4 µM in [2] (Homo sapiens, SU-DHL-5, 3 h) and above 33 µM in [7] (Homo sapiens, SU-DHL10, 3 h).
Regarding `Cn1nc(CN2CCOCC2)c2c1COCCCCn1c(C(=O)O)c(CCCOc3cccc4ccccc34)c3cccc-2c31` (racemic) [Example 135, (rac)-1-methyl-3-(morpholin-4-ylmethyl)-7-[3-(naphthalen-1-yloxy)propyl]-1,10,11,12,13,15-hexahydropyrazolo[4′,3′:9,10][1,6]oxazacycloundecino[8,7,6-hi]indole-8-carboxylic Acid], the IC50 was above 3.3e-05 M in data set [1] (setting [10]); 0.0147 µM in data set [3]; 7.26e-06 M in data set [4] (Homo sapiens, SU-DHL-5, 72 h); 1.06e-05 M in data set [5] (setting [11]); above 3.3e-05 M in data set [6] (Homo sapiens, OPM-2, 72 h); 1.01e-05 M in [8] (Homo sapiens, SU-DHL10, 72 h). Further, in data set [9] (Homo sapiens, A2780, 72 h), the IC50 is above 3.3e-05 M. Further, the EC50 in data set [2] (Homo sapiens, SU-DHL-5, 3 h) was 12.1 µM; in data set [7] (Homo sapiens, SU-DHL10, 3 h), above 33 µM.
As for `CN1CCCn2c(C(=O)O)c(CCCOc3cccc4ccccc34)c3cccc(c32)-c2c(COc3ccc(N4CCN(S(C)(=O)=O)CC4)cc3)nn(C)c2C1` (single isomer, unassigned) [Example 1-47, (−)-7,9-dimethyl-11-({4-[4-(methylsulfonyl)piperazin-1-yl]phenoxy}methyl)-1-[3-(naphthalen-1-yloxy)propyl]-4,5,6,7,8,9-hexahydropyrazolo[3′,4′:7,8][1,5]diazecino[9,10,1-hi]indole-2-carboxylic Acid], the IC50 amounted to 1.32e-05 M in data set [1] (read-out: Cytotox SUDHL10 [M] (median), SUDHL10 cells, cytotoxicity induction, CellTiter-Glo, 5 h incubation, median); 0.0193 µM in data set [3]; 3.91e-06 M in data set [4]; 1.08e-05 M in data set [5] (read-out: Cytotox SUDHL5 [M] (median), SUDHL5 cells, cytotoxicity induction, CellTiter-Glo, 5 h incubation, median); 8.35e-06 M in data set [6]; 3.99e-06 M in data set [8]. The IC50 in [9] amounted to 6.4e-06 M. In addition, the results for the EC50 in [2] and in data set [7] were 9.12 µM and 9.54 µM, respectively.

As a reminder, the EC50 is the midpoint of the concentration-response curve. Lower therefore signals greater potency.
